{
  "source": "patent US12038430B2",
  "about": "“Methods for high-content drug screening” (The Regents of the University of California, priority 2018, dated 2024)",
  "tested_on": "human wildtype CFTR",
  "experiment": "Iodide transport / YFP quenching CFTR activation assay in FRT cells on micropillar array",
  "type": "cell-based",
  "details": "10 μM forskolin in alginate hydrogel, 10 min contact, FRT cells expressing human CFTR and YFP, versus neighboring area without forskolin",
  "description": "FRT cells stably expressing human wildtype CFTR and yellow fluorescent protein YFP-H148/I152L were cultured on polyester transwell filters until they formed a tight monolayer (electrical resistance >3 kOhm·cm^2), as previously described in the art. The cell culture medium was then replaced with a viscous solution consisting of 2% methylcellulose (about 41,000 daltons, Sigma-Aldrich) in PBS. The cell layer was contacted with a 10×10 micropillar array for 10 min, and then the viscous solution was rinsed. For transport measurement, an iodide-containing solution (PBS with 120 mM chloride was replaced by iodide) was added manually on top of the cell layer. YFP fluorescence of the entire cell culture area was monitored for 5 min at 10 Hz using a 2× magnification lens (CFI Plan Apo Lambda 2X, Nikon, Melville, NY) with EMCCD camera detector (C9100, Hamamatsu). YFP fluorescence is reduced as the added extracellular iodide is transported into cell cytoplasm through activated CFTR. The time course of fluorescence for each of the 100 locations, each integrated over the 100-μm diameter circular cell area overlying the corresponding micropillar well, was determined using ImageJ. […]\nCFTR function was determined from the kinetics of YFP fluorescence quenching following addition of an iodide-containing solution on the apical surface of the cell monolayer. […]",
  "data": [
    {"smiles": "C=C[C@@]1(C)CC(=O)[C@]2(O)[C@@]3(C)[C@@H](O)CCC(C)(C)[C@@H]3[C@H](O)[C@H](OC(C)=O)[C@@]2(C)O1", "note": "[Forskolin, forskolin]", "values": [
      {"measurement": "increase of initial curve slope of YFP fluorescence quenching (CFTR activation)", "value": "more than 14 fold"}
    ]}
  ]
}
